Read-outs that look alike come from different tables or passages of the source.
Tests used:
[1] = Cytotoxicity (CC50) in mock-infected H1-HeLa cells, XTT dye reduction; type: cell-based, human; conditions: human, H1-HeLa cells, mock-infected; line of HRV-14
Method: (§1) In this cell protection assay, the ability of compounds to protect cells against HRV infection was measured by the XTT dye reduction method, which is described in Weislow et al., J. Natl. Cancer Inst. […] H1-HeLa cells were infected with HRV-14 at a multiplicity of infection (m.o.i.) of 0.13 (virus particles/cell) or mock-infected with medium only. Infected or mock-infected cells were resuspended at 8×10^5 cells per mL, and incubated with appropriate concentrations of the compounds to be tested. Two days later, XTT/PMS was added to test plates and the amount of formazan produced was quantified spectrophotometrically at 450/650 nm. […] The therapeutic index (TI) was calculated by dividing the CC50 value by the EC50 value.
(§2) All strains of human rhinovirus (HRV) for use in this assay were purchased from American Type Culture Collection (ATCC), except for HRV serotype-14 (produced from the infectious cDNA clone constructed by Dr. Robert Rueckert, Institute for Molecular Virology, University of Wisconsin, Madison, Wis.). HRV stocks were propagated and viral assays were performed in H1-HeLa cells (ATCC). Cells were grown in minimal essential medium with 10% fetal bovine serum, available from Life Technologies (Gaithersburg, Md.).
Coxsackievirus types A-21 (CAV-21) and B3 (CVB3) were purchased from American Type Culture Collection (ATCC, Rockville, Md.). Virus stocks were propagated and antiviral assays were performed in H1-HeLa cells (ATCC). Cells were grown in minimal essential medium with 10% fetal bovine serum (Life Technologies, Gaithersburg, Md.). The ability of the compounds of this invention to protect cells against either CAV-21 or CVB3 infection was measured by the XTT dye reduction method. This method is described in Weislow et al., J. Natl. Cancer Inst. […] H1-HeLa cells were infected with CAV-21 or CVB3 at a multiplicity of infection (m.o.i.) of 0.025 or 0.075, respectively, or mock-infected with medium only. H1-HeLa cells were plated at 4×10^4 cells per well in a 96-well plate and incubated with appropriate concentrations of the test compound. One day (CVB3) or two days (CAV-21) later, XTT/PMS was added to test plates and the amount of formazan produced was quantified spectrophotometrically at 450/650 nm. […] The therapeutic index (TI) was calculated by dividing the CC50 by the EC50.

[2] = biological target: T1, Recombinant rhinovirus 3C protease, serotype 14 (Human rhinovirus 14, UniProt P03303); assay: Inhibition of rhinovirus 3C protease (FRET assay, kobs/[I]), serotype 14; type: biochemical; conditions: pH 7.6; HRV-14; read-out: kobs/[I] (3C protease inhibition activity)
T1 construct: Recombinant rhinovirus 3C proteases; made in house
T1 sequence (P03303 1538-1719): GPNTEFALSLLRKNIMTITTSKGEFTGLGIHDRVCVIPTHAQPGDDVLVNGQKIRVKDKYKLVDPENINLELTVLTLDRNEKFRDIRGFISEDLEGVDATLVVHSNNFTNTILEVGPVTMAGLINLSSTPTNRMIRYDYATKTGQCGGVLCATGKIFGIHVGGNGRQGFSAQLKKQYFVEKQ
Method: Inhibition of Rhinovirus 3C Protease:
Stock solutions (50 mM, in DMSO) of various compounds were prepared; dilutions were in the same solvent. Recombinant rhinovirus 3C proteases (see Birch et al., “Purification of recombinant human rhinovirus 14 3C protease expressed in Escherichia coli,” Protein Expr. Pur. (1995), vol. 6(5), 609-618) from serotypes 14, 16, and 2 were prepared by the following standard chromatographic procedures: (1) ion exchange using Q Sepharose Fast Flow from Pharmacia; (2) affinity chromatography using Affi-Gel Blue from Biorad; and (3) sizing using Sephadex G-100 from Pharmacia. Each assay sample contained 2% DMSO, 50 mM tris pH 7.6, 1 mM EDTA, a test compound at the indicated concentration, approximately 1 μM substrate, and 50-100 nM protease. The kobs/I values were obtained from reactions initiated by addition of enzyme rather than substrate. RVP activity was measured in the fluorescence resonance energy transfer assay. The substrate was (N-terminal) DABCYL-([…]-EDANS. In the uncleaved peptide, the EDANS fluorescence was quenched by the proximal DABCYL moiety. When the peptide was cleaved, the quenching was relieved, and activity was measured as an increase in fluorescence signal. The tabulated data in the column designated kobs/[I] were measured from progress curves in enzyme start experiments.

HRV-14 = assay: Antirhinoviral H1-HeLa cell culture assay (XTT cell protection, EC50), HRV-14; type: cell-based, human rhinovirus (HRV) serotype-14 in H1-HeLa cells; conditions: Rhinovirus B, HRV14, H1-HeLa
Method: Antirhinoviral H1-HeLa Cell Culture Assay:
as §1, §2

CCOC(=O)/C=C/[C@H](C[C@H]1CCNC1=O)NC(=O)[C@H](Cc1ccccc1)n1cccc(NC(=O)OCc2ccccc2)c1=O [Compound 21, trans-(2′S,3′″R,4S)-4-[2′-(3″-Benzyloxycarbonylamino-2″-oxo-2″H-pyridin-1″-yl)-3′-phenylpropionylamino]-5-(2′″-oxopyrrolidin-3′″-yl)pent-2-enoic Acid Ethyl Ester]
CC50 at 2 days [1]: > 10 µM
kinact/KI [2]: 6340 M⁻¹ s⁻¹
EC50 (HRV-14): 0.469 µM

CCOC(=O)/C=C/[C@H](C[C@@H]1CCNC1=O)NC(=O)Cn1cccc(NC(=O)c2cc(C)on2)c1=O [Compound 22, trans-(4S,3″″S)-4-(2′-{3″-[(5′″-Methylisoxazole-3′″-carbonyl)amino]-2″-oxo-2″H-pyridin-1″-yl}acetylamino)-5-(2″″-oxopyrrilidin-3″″-yl)pent-2-enoic Acid Ethyl Ester]
CC50 at 2 days [1]: > 10 µM
kinact/KI [2]: 18500 M⁻¹ s⁻¹
EC50 (HRV-14): 1 µM

O=C1OCC/C1=C\[C@H](C[C@@H]1CCNC1=O)NC(=O)[C@H](Cc1ccc(F)cc1)n1cccc(NC(=O)c2cc(Cl)on2)c1=O [Compound 23, trans-(2″S,2″S,3″″″S)-5-Chloroisoxazole-3-carboxylic Acid (1′-{2″-(4′″-fluorophenyl)-1″-[2″″-(2′″″-oxodihydrofuran-3′″″-ylidene)-1″″-(2″″″-oxopyrrolidin-3″″″-ylmethyl)ethylcarbamoyl]ethyl}-2′-oxo-1′,2′′-dihydropyridin-3′-yl)amide]
CC50 at 2 days [1]: > 10 µM
kinact/KI [2]: 385000 M⁻¹ s⁻¹
EC50 (HRV-14; HRV-14, read-out: EC50): 0.064 µM

CCOC(=O)/C=C/[C@H](CCC(N)=O)NC(=O)[C@H](Cc1ccccc1)n1cccc(NC(=O)c2cc(Cl)on2)c1=O [Compound 30, trans-(2′S,4S)-6-Carbamoyl-4-(2′-{3″-[(5′″-chloroisoxazole-3′″-carbonyl)amino]-2″-oxo-2″H-pyridin-1″-yl}-3′-phenylpropionylamino)hex-2-enoic Acid Ethyl Ester]
CC50 at 2 days [1]: > 10 µM
kinact/KI [2]: 134000 M⁻¹ s⁻¹
EC50 (HRV-14; HRV-14, read-out: EC50): 0.024 µM

CC[C@@H](C(=O)N[C@H](/C=C/C(=O)O)C[C@@H]1CCNC1=O)n1cccc(NC(=O)c2cc(C)on2)c1=O [Compound 35, trans-(2S,3″″S,4S)-4-(2′-{3″-[(5′″-Methylisoxazole-3′″-carbonyl)amino]-2″-oxo-2″H-pyridin-1″-yl}butyrylamino)-5-(2″″-oxopyrrolidin-3″″-yl)pent-2-enoic Acid]
CC50 at 2 days [1]: > 10 µM
kinact/KI [2]: 220 M⁻¹ s⁻¹
EC50 (HRV-14): > 10 µM

CCOC(=O)/C=C/[C@H](CCC(N)=O)NC(=O)[C@@H]1CCc2ccc(NC(=O)OCc3ccccc3)c(=O)n21 [Compound 36, trans-(3′S,4S)-4-[(6′-Benzyloxycarbonylamino-5′-oxo-1′,2′,3′,5′-tetrahydroindolizine-3′-carbonyl)amino]-6-carbamoylhex-2-enoic Acid Ethyl Ester]
CC50 at 2 days [1]: > 100 µM
kinact/KI [2]: 4540 M⁻¹ s⁻¹
EC50 (HRV-14; HRV-14, read-out: EC50): 9 µM

C#CC[C@@H](C(=O)N[C@H](/C=C/C(=O)O)C[C@@H]1CCNC1=O)n1cccc(NC(=O)c2cc(C)on2)c1=O [Compound 43, trans-(2′S,3′″″S,4S)-4-[2′-(3″-{[1′″-(5″″-Methylisoxazol-3″″-yl)methanoyl]amino}-2′″-oxo-2′″H-pyridin-1′″-yl)pent-4″-ynoylamino]-5-(2′″″-oxopyrrolidin-3′″″-yl)pent-2-enoic Acid]
CC50 at 2 days [1]: > 10 µM
kinact/KI [2]: 382 M⁻¹ s⁻¹
EC50 (HRV-14): > 10 µM
